System: not given
Experiment: not given
Settings: intravenous (IV) formulation; cited from earlier work

Row | Molecule | first-phase pharmacokinetic half-life [min]
1 | Serelaxin | 5.4

Biological target: T1, human RXFP1 (Homo sapiens, UniProt Q9HBX9)
T1 construct: expressed in transfected cells
T1 sequence (Q9HBX9 1-757): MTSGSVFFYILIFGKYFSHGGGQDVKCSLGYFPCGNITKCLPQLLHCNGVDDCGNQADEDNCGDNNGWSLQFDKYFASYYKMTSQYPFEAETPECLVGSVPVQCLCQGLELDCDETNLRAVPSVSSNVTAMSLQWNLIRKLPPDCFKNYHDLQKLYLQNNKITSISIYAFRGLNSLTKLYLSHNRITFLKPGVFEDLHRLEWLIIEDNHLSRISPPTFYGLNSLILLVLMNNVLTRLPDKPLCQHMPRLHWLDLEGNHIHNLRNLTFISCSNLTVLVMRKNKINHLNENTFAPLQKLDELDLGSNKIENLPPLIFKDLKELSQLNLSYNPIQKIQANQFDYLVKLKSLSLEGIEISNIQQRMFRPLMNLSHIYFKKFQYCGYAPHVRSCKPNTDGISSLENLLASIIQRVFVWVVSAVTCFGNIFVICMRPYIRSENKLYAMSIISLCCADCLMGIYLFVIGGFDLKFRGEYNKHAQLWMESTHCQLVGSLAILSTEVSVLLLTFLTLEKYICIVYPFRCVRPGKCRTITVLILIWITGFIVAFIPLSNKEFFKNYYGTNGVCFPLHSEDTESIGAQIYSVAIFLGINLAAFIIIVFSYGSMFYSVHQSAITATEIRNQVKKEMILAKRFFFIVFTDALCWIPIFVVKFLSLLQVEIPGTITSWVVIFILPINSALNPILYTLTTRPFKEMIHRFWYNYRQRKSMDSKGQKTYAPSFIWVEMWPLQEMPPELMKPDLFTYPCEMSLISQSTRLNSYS
Experiment: cAMP hRXFP1 HEK293 Assay
Type: cell-based
Settings: HEK293 cells stably expressing human RXFP1; 30 min at room temperature; HTRF cAMP
Method: RXFP1 Cyclic Adenosine Monophosphate (cAMP) Assays. Human embryonic kidney cells 293 (HEK293) cells and HEK293 cells stably expressing human RXFP1, were cultured in MEM medium supplemented with 10% qualified FBS, and 300 μg/ml hygromycin (Life Technologies). Cells were dissociated and suspended in assay buffer. The assay buffer was HBSS buffer (with calcium and magnesium) containing 20 mM HEPES. 0.05% BSA, and 0.5 mM IBMX. Cells (3000 cells per well, except 1500 cell per well for HEK293 cells stably expressing human RXFP1) were added to 384-well Proxiplates (Perkin-Elmer). Cells were immediately treated with test compounds in DMSO (2% final) at final concentrations in the range of 0.010 nM to 50 μM. Cells were incubated for 30 min at room temperature. The level of intracellular cAMP was determined using the HTRF HiRange cAMP assay reagent kit (Cisbio) according to manufacturer's instructions. Solutions of cryptate conjugated anti-cAMP and d2 fluorophore-labelled cAMP were made in a supplied lysis buffer separately. Upon completion of the reaction, the cells were lysed with equal volume of the d2-cAMP solution and anti-cAMP solution. After a 1 h room temperature incubation, time-resolved fluorescence intensity was measured using the Envision (Perkin-Elmer) at 400 nm excitation and dual emission at 590 nm and 665 nm. A calibration curve was constructed with an external cAMP standard at concentrations ranging from 2.7 μM to 0.1 μM by plotting the fluorescent intensity ratio from 665 nm emission to the intensity from the 590 nm emission against cAMP concentrations. The potency and activity of a compound to inhibit cAMP production was then determined by fitting to a 4-parametric logistic equation from a plot of cAMP level versus compound concentrations.
The examples disclosed below were tested in the human RXFP1 (hRXFP1) HEK293 cAMP assay described above and found to have agonist activity. Table I lists EC50 values in the hRXFP1 HEK293 cAMP assay measured for the examples.

Row | Molecule | EC50 [nM]
2 | O=C(O)c1cccc(C2CCCC(C(=O)N[C@H]3[C@@H](C(=O)Nc4ccc(F)c(C(F)(F)F)c4)[C@H]4CC[C@@H]3/C4=C\C(F)(F)F)C2)c1 (single isomer, unassigned) [Example 1] | 930
3 | O=C(O)c1cccc(C2CCCC(C(=O)N[C@H]3[C@@H](C(=O)Nc4ccc(F)c(C(F)(F)F)c4)[C@H]4CC[C@@H]3/C4=C\C(F)(F)F)C2)c1 (single isomer, unassigned) [Example 2] | 300
4 | O=C(O)c1cccc(C2CCCC(C(=O)N[C@H]3[C@@H](C(=O)Nc4ccc(F)c(C(F)(F)F)c4)[C@H]4CC[C@@H]3/C4=C\C(F)(F)F)C2)c1 (single isomer, unassigned) [Example 3] | 510
5 | O=C(CCCCCCCO)N[C@@H]1C2CCC(/C2=C/C2CC2)C1C(=O)Nc1ccc(F)c(C(F)(F)F)c1 (stereo in doubt) [Example 5, (1R,2R,3R,4R,Z)-7-(cyclopropylmethylene)-N-(4-fluoro-3-(trifluoromethyl)phenyl)-3-(8-hydroxyoctanamido)bicyclo [2.2.1]heptane-2-carboxamide] | 1200
6 | COc1ccc(Cl)cc1NC(=O)N[C@H]1[C@@H](C(=O)Nc2ccc(F)c(C(F)(F)F)c2)[C@H]2CC[C@@H]1/C2=C\C(F)(F)F [Example 4, (1R,2S,3R,4R,Z)-3-(3-(5-chloro-2-methoxyphenyl)ureido)-N-(4-fluoro-3-(trifluoromethyl)phenyl)-7-(2,2,2-trifluoroethylidene)bicyclo[2.2.1]heptane-2-carboxamide] | 3800
7 | CO[C@H](C(=O)N[C@H]1[C@@H](C(=O)Nc2ccc(F)c(C(F)(F)F)c2)[C@H]2CC[C@@H]1/C2=C\C(F)(F)F)c1ccccc1 [Example 6, (1R,2S,3R,4R,Z)-N-(4-fluoro-3-(trifluoromethyl)phenyl)-3-((S)-2-methoxy-2-phenylacetamido)-7-(2,2,2-trifluoroethylidene)bicyclo [2.2.1]heptane-2-carboxamide] | 3300
8 | O=C(N[C@H]1[C@@H](C(=O)Nc2ccc(F)c(C(F)(F)F)c2)[C@H]2CC[C@@H]1/C2=C\C(F)(F)F)C(O)c1cccc(Oc2ccccc2)c1 (stereo partly drawn) [Example 7, (1R,2S,3R,4R,Z)-N-(4-fluoro-3-(trifluoromethyl)phenyl)-3-(2-hydroxy-2-(3-phenoxyphenyl)acetamido)-7-(2,2,2-trifluoroethylidene)bicyclo [2.2.1]heptane-2-carboxamide] | 3400
9 | O=C(O)CCCCCCC(=O)N[C@H]1[C@@H](C(=O)Nc2ccc(F)c(C(F)(F)F)c2)[C@H]2CC[C@@H]1/C2=C\C1CC1 [Example 8, 8-(((1R,2R,3S,4R,Z)-7-(cyclopropylmethylene)-3-((4-fluoro-3-(trifluoromethyl)phenyl)carbamoyl)bicyclo[2.2.1]heptan-2-yl)amino)-8-oxooctanoic acid] | 4700

Second part, the molecule after the results:

Row | EC50 [nM] | Molecule
10 | 510 | O=C(O)c1cccc(C2CCC(C(=O)N[C@H]3[C@@H](C(=O)Nc4ccc(F)c(C(F)(F)F)c4)[C@H]4CC[C@@H]3/C4=C\C(F)(F)F)C2)c1 (single isomer, unassigned) [Example 9]
11 | 2000 | O=C(O)c1cccc(C2CCC(C(=O)NC3C4CCC(C4=CC(F)(F)F)C3C(=O)Nc3ccc(F)c(C(F)(F)F)c3)C2)c1 (single isomer, unassigned) [Example 10]
12 | 350 | O=C(NC1C2CCC(/C2=C/C2CC2)[C@@H]1C(=O)Nc1ccc(F)c(C(F)(F)F)c1)C1CCC[C@H](C2=NOC3COCC23)C1 (single isomer, unassigned) [Example 12]
13 | 2900 | O=C(N[C@@H]1C2CCC(/C2=C/C2CC2)[C@@H]1C(=O)Nc1ccc(F)c(C(F)(F)F)c1)C1CCC[C@H](C2=NOC3COCC23)C1 (single isomer, unassigned) [Example 13]
14 | 1600 | O=C(N[C@@H]1C2CCC(/C2=C/C2CC2)[C@@H]1C(=O)Nc1ccc(F)c(C(F)(F)F)c1)C1CCC[C@H](C2=NOC3COCC23)C1 (single isomer, unassigned) [Example 14]
15 | 1400 | O=C(N[C@@H]1C2CCC(/C2=C/C2CC2)[C@@H]1C(=O)Nc1ccc(F)c(C(F)(F)F)c1)C1CCC[C@H](C2=NOC3COCC23)C1 (single isomer, unassigned) [Example 15]
16 | 1600 | O=C(N[C@H]1[C@@H](C(=O)Nc2ccc(F)c(C(F)(F)F)c2)[C@H]2CC[C@@H]1/C2=C\C1CC1)C1CCC[C@@H](C2=NOC3COCC23)C1 (single isomer, unassigned) [Example 17]
17 | 1000 | O=C(N[C@H]1[C@@H](C(=O)Nc2ccc(F)c(C(F)(F)F)c2)[C@H]2CC[C@@H]1/C2=C\C1CC1)C1CCC[C@@H](C2=NOC3COCC23)C1 (single isomer, unassigned) [Example 18]
18 | 2000 | O=C(N[C@H]1[C@@H](C(=O)Nc2ccc(F)c(C(F)(F)F)c2)[C@H]2CC[C@@H]1/C2=C\C1CC1)C1CCC[C@@H](C2=NOC3COCC23)C1 (single isomer, unassigned) [Example 19]
19 | 4300 | O=C(O)c1cccc(C2CCC(C(=O)N[C@H]3[C@@H](C(=O)Nc4ccc(F)c(C(F)(F)F)c4)[C@H]4CC[C@@H]3/C4=C\C(F)(F)F)CC2)c1 (some centres unmarked) [Example 11]
20 | 1000 | O=C(N[C@H]1[C@@H](C(=O)Nc2ccc(F)c(C(F)(F)F)c2)[C@H]2CC[C@@H]1/C2=C\C1CC1)C1CCC[C@@H](C2=NOC3COCC23)C1 (stereo partly drawn) [Example 16, (1R,2S,3R,4R,7Z)-3-[(3R)-3-{3aH,4H,6H,6aH-furo[3,4-d][1,2]oxazol-3-yl}cyclohexaneamido]-7-(cyclopropylmethylidene)-N-[4-fluoro-3-(trifluoromethyl)phenyl]bicyclo [2.2.1]heptane-2-carboxamide]
